One sequence from patent US12110316B2, “Cleavable activators of CXCR3 and methods of use” (University of Pittsburgh—Of the Commonwealth System of …, priority 2018, dated 2024) can be followed below.

The test system of the assay is choroidal neovascularization (CNV). The assay can be described thus: Laser-induced choroidal neovascularization (CNV) mouse model. Conditions: female C57BL/6J mice; 1 μg (FIG. 1A) or 3 μg (FIG. 1B) peptide injected in 1 μl in one eye immediately after laser; scramble peptide in contralateral eye; measured seven days after laser. It counts as in vivo. As for the experimental part: Since the histidine to serine substitution is a non-conserved amino acid change, experiments were performed to confirm that the engineered peptide retained the ability to block angiogenesis and fibrosis in a mouse model of choroidal neovascularization (CNV).
Mouse CNV was induced by laser photocoagulation-induced rupture of Bruch's membrane as previously described. Briefly, 7- to 8-week-old female C57BL/6J mice were anesthetized with ketamine hydrochloride (100 mg/kg body weight), and pupils were dilated with 1% tropicamide. Three burns of 532-nm diode laser photocoagulation (spot size, […]; duration, 0.1 sec; power, 120 mW) were delivered to each retina with the slit lamp delivery system of an OcuLight GL diode laser (Iridex, Mountain View, CA), using a coverslip as a contact lens to view the retina. Burns were performed at the 9, 12, and 3 o'clock positions of the posterior pole of the retina. […]
Immediately after laser treatment, mice were injected with either 1 μg (FIG. 1A) or 3 μg (FIG. 1B) of Peptide 110 (SEQ ID NO: 2), or one of three positive control peptides (Peptide 102, Peptide 105 or Peptide 107), in a volume of 1 μl in one eye and the contralateral eyes were injected with scramble peptide as control. […] After three washes with PBST, choroids were mounted on glass slides and were examined by fluorescence microscopy. […]

On to “PESKAIKNLLKAVHKEMSKRSP [Peptide 110, modified fragment of human CXCL10 with a cathepsin G and neutrophil elastase cleavage site]”, for which the “choroidal neovascularization (total area of choroidal NV at each rupture site); anti-angiogenic activity” value is listed as “significant reduction”.
